How the values were obtained:
duck salad = test: Test B flood test duck salad; type: in vivo, Heteranthera limosa; conditions: for Plant response rating, Ducksalad: scale 0 to 10, 0 is no effect, 10 is complete control; for Ducksalad plant response rating: scale of 0 to 10 where 0 is no effect and 10 is complete control
Outline: (§1)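 Read-out is a visual response score from 0 (no effect) to 10 (complete control), assigned by comparison with untreated controls. Treatment was applied at the 2-leaf stage, and plants stayed in the greenhouse for twelve to sixteen days before scoring.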

purple nutsedge = test: Test B pre/postemergence purple nutsedge; type: in vivo, Cyperus rotundus
Outline: (§2)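 Response is a visual 0-to-10 score relative to untreated plants, where 0 means no effect and 10 means complete control, taken twelve to sixteen days after application. Treatments went onto soil at planting and onto foliage of 1- to 4-leaf plants, using a surfactant-containing non-phytotoxic solvent.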

wheat = test: Test B pre/postemergence wheat; type: in vivo, Triticum aestivum
Outline: as §2

velvetleaf = test: Test B pre/postemergence velvetleaf; type: in vivo, Abutilon theophrasti
Outline: as §2

rape = test: Test B pre/postemergence rape; type: in vivo, Brassica napus
Outline: as §2

bamyardgrass = test: Test B flood test barnyardgrass; type: in vivo, Echinochloa crus-galli; conditions: for Plant response rating, Barnyardgrass: scale 0 to 10, 0 is no effect, 10 is complete control; for Barnyardgrass plant response rating: scale of 0 to 10 where 0 is no effect and 10 is complete control
Outline: as §1

smallflower flatsedge = test: Test B flood test smallflower flatsedge; type: in vivo, Cyperus difformis
Outline: as §1

crabgrass = test: Test B pre/postemergence crabgrass; type: in vivo, Digitaria sanguinalis
Outline: as §2

bedstraw = test: Test B pre/postemergence bedstraw; type: in vivo, Galium aparine; conditions: Postemergence; for Plant response rating, Bedstraw: scale 0 to 10, 0 is no effect, 10 is complete control; for Bedstraw plant response rating: scale of 0 to 10 where 0 is no effect and 10 is complete control
Outline: as §2

corn = test: Test B pre/postemergence corn; type: in vivo, Zea mays
Outline: as §2

sugar beet = test: Test B pre/postemergence sugar beet; type: in vivo, Beta vulgaris
Outline: as §2

surinam grass = test: Test B pre/postemergence surinam grass; type: in vivo, Brachiaria decumbens
Outline: as §2

wild oat = test: Test B pre/postemergence wild oat; type: in vivo, Avena fatua
Outline: as §2

giant foxtail = test: Test B pre/postemergence giant foxtail; type: in vivo, Setaria faberii
Outline: as §2

blackgrass = test: Test B pre/postemergence blackgrass; type: in vivo, Alopecurus myosuroides
Outline: as §2

rice = test: Test B flood test rice; type: in vivo, Oryza sativa
Outline: as §1

[1] = Postemergence (flood test), Rate 125 g/ha
[2] = Postemergence section (flood test species), Rate 500 g/ha
[3] = Rate 62 g/ha, Postemergence (flood test species)
[4] = flood test species, listed under Postemergence, Rate 250 g/ha
[5] = Postemergence, Rate 250 g/ha, scale 0 to 10, 0 is no effect, 10 is complete control
[6] = Postemergence, Rate 500 g/ha, scale of 0 to 10 where 0 is no effect and 10 is complete control
[7] = Preemergence, Rate 62 g/ha, scale 0 to 10 (0 no effect, 10 complete control)
[8] = Preemergence, Rate 125 g/ha, scale of 0 to 10 where 0 is no effect and 10 is complete control
[9] = Preemergence, Rate 250 g/ha, scale 0 to 10, 0 is no effect, 10 is complete control
[10] = Preemergence, Rate 500 g/ha, scale 0 to 10, 0 is no effect, 10 is complete control
[11] = Postemergence section (flood test species), Rate 500 g/ha, scale of 0 to 10 where 0 is no effect and 10 is complete control
[12] = flood test species, listed under Postemergence, Rate 250 g/ha, scale 0 to 10, 0 is no effect, 10 is complete control
[13] = Postemergence, Rate 125 g/ha, scale 0 to 10, 0 is no effect, 10 is complete control
[14] = Rate 62 g/ha, Postemergence, scale of 0 to 10 where 0 is no effect and 10 is complete control
[15] = Preemergence, Rate 250 g/ha, scale of 0 to 10 where 0 is no effect and 10 is complete control

Question: With CC(C)N(C(=O)n1oc(=O)n(CC2(C)COC2)c1=O)c1ccccc1 [Compound 420] as the compound, how does the “Plant response rating, Ducksalad” value (duck salad; [1]) read?
Answer: 0

Question: And the “Ducksalad plant response rating” value (duck salad; [2])?
Answer: 0

Question: What about the “Ducksalad plant response rating” value (duck salad; [3]) of the same compound?
Answer: 0

Question: And the “Plant response rating, Ducksalad” value (duck salad; [4])?
Answer: 0

Question: What about the “Plant response rating, Nutsedge” value (purple nutsedge; [5]) of the same compound?
Answer: 0

Question: What about the “Nutsedge plant response rating” value (purple nutsedge; [6]) of the same compound?
Answer: 0

Question: And the “Plant response rating, Nutsedge” value (purple nutsedge; [7])?
Answer: 0

Question: And the “Plant response rating, Nutsedge” value (purple nutsedge; [8])?
Answer: 0

Question: And the “Nutsedge plant response rating” value (purple nutsedge; [9])?
Answer: 0

Question: And the “Nutsedge plant response rating” value (purple nutsedge; [10])?
Answer: 10

Question: And the “Wheat plant response rating” value (wheat; [6])?
Answer: 5

Question: And the “Plant response rating, Wheat” value (wheat; [7])?
Answer: 0

Question: What about the “Plant response rating, Wheat” value (wheat; [8]) of the same compound?
Answer: 0

Question: What about the “Wheat plant response rating” value (wheat; [9]) of the same compound?
Answer: 2

Question: And the “Wheat plant response rating” value (wheat; [10])?
Answer: 7

Question: What about the “Plant response rating, Velvetleaf” value (velvetleaf; [5]) of the same compound?
Answer: 0

Question: And the “Velvetleaf plant response rating” value (velvetleaf; [6])?
Answer: 0

Question: What about the “Plant response rating, Velvetleaf” value (velvetleaf; [7]) of the same compound?
Answer: 0

Question: And the “Plant response rating, Velvetleaf” value (velvetleaf; [8])?
Answer: 2

Question: What about the “Velvetleaf plant response rating” value (velvetleaf; [9]) of the same compound?
Answer: 6

Question: What about the “Velvetleaf plant response rating” value (velvetleaf; [10]) of the same compound?
Answer: 7

Question: And the “Plant response rating, Rape” value (rape; [5])?
Answer: 0

Question: What about the “Rape plant response rating” value (rape; [6]) of the same compound?
Answer: 0

Question: What about the “Plant response rating, Rape” value (rape; [7]) of the same compound?
Answer: 0

Question: What about the “Plant response rating, Rape” value (rape; [8]) of the same compound?
Answer: 0

Question: And the “Rape plant response rating” value (rape; [9])?
Answer: 0

Question: What about the “Rape plant response rating” value (rape; [10]) of the same compound?
Answer: 8

Question: What about the “Plant response rating, Barnyardgrass” value (bamyardgrass; [1]) of the same compound?
Answer: 0

Question: And the “Barnyardgrass plant response rating” value (bamyardgrass; [2])?
Answer: 0

Question: What about the “Barnyardgrass plant response rating” value (bamyardgrass; [3]) of the same compound?
Answer: 0

Question: What about the “Plant response rating, Barnyardgrass” value (bamyardgrass; [4]) of the same compound?
Answer: 0

Question: What about the “S. Flatsedge plant response rating” value (smallflower flatsedge; [11]) of the same compound?
Answer: 0

Question: What about the “Plant response rating, S. Flatsedge” value (smallflower flatsedge; [12]) of the same compound?
Answer: 0

Question: And the “Plant response rating, Crabgrass” value (crabgrass; [13])?
Answer: 2

Question: What about the “Plant response rating, Crabgrass” value (crabgrass; [5]) of the same compound?
Answer: 8

Question: What about the “Crabgrass plant response rating” value (crabgrass; [6]) of the same compound?
Answer: 8

Question: What about the “Plant response rating, Crabgrass” value (crabgrass; [7]) of the same compound?
Answer: 7

Question: And the “Plant response rating, Crabgrass” value (crabgrass; [8])?
Answer: 9

Question: What about the “Crabgrass plant response rating” value (crabgrass; [9]) of the same compound?
Answer: 9

Question: What about the “Crabgrass plant response rating” value (crabgrass; [10]) of the same compound?
Answer: 10

Question: What about the “Crabgrass plant response rating” value (crabgrass; [14]) of the same compound?
Answer: 2

Question: What about the “Plant response rating, Bedstraw” value (bedstraw; Rate 125 g/ha) of the same compound?
Answer: 0

Question: And the “Plant response rating, Bedstraw” value (bedstraw; Rate 250 g/ha)?
Answer: 3

Question: What about the “Bedstraw plant response rating” value (bedstraw; Rate 500 g/ha) of the same compound?
Answer: 5

Question: And the “Bedstraw plant response rating” value (bedstraw; Rate 62 g/ha)?
Answer: 0

Question: What about the “Plant response rating, Corn” value (corn; [13]) of the same compound?
Answer: 0

Question: What about the “Plant response rating, Corn” value (corn; [5]) of the same compound?
Answer: 0

Question: What about the “Corn plant response rating” value (corn; [6]) of the same compound?
Answer: 0

Question: What about the “Plant response rating, Corn” value (corn; [7]) of the same compound?
Answer: 0

Question: What about the “Plant response rating, Corn” value (corn; [8]) of the same compound?
Answer: 0

Question: And the “Corn plant response rating” value (corn; [9])?
Answer: 0

Question: What about the “Corn plant response rating” value (corn; [10]) of the same compound?
Answer: 2

Question: And the “Corn plant response rating” value (corn; [14])?
Answer: 0

Question: And the “Plant response rating, Sugarbeets” value (sugar beet; [5])?
Answer: 0

Question: What about the “Sugarbeets plant response rating” value (sugar beet; [6]) of the same compound?
Answer: 0

Question: What about the “Plant response rating, Sugarbeets” value (sugar beet; [7]) of the same compound?
Answer: 0

Question: And the “Plant response rating, Sugarbeets” value (sugar beet; [8])?
Answer: 0

Question: What about the “Sugarbeets plant response rating” value (sugar beet; [9]) of the same compound?
Answer: 2

Question: What about the “Sugarbeets plant response rating” value (sugar beet; [10]) of the same compound?
Answer: 3

Question: And the “Plant response rating, B. signalgrass” value (surinam grass; [13])?
Answer: 2

Question: What about the “Plant response rating, B. signalgrass” value (surinam grass; [5]) of the same compound?
Answer: 5

Question: And the “B. signalgrass plant response rating” value (surinam grass; [6])?
Answer: 7

Question: And the “Plant response rating, B. signalgrass” value (surinam grass; [7])?
Answer: 2

Question: And the “Plant response rating, B. signalgrass” value (surinam grass; [8])?
Answer: 2

Question: And the “B. signalgrass plant response rating” value (surinam grass; [15])?
Answer: 6

Question: And the “B. signalgrass plant response rating” value (surinam grass; Preemergence, Rate 500 g/ha, scale of 0 to 10 where 0 is no effect and 10 is complete control)?
Answer: 8

Question: And the “B. signalgrass plant response rating” value (surinam grass; [14])?
Answer: 0

Question: And the “Wild oats plant response rating” value (wild oat; [6])?
Answer: 2

Question: And the “Plant response rating, Wild oats” value (wild oat; [7])?
Answer: 0

Question: And the “Plant response rating, Wild oats” value (wild oat; [8])?
Answer: 2

Question: What about the “Wild oats plant response rating” value (wild oat; [9]) of the same compound?
Answer: 2

Question: What about the “Wild oats plant response rating” value (wild oat; [10]) of the same compound?
Answer: 5

Question: And the “Plant response rating, Giant foxtail” value (giant foxtail; [13])?
Answer: 8

Question: And the “Plant response rating, Giant foxtail” value (giant foxtail; [5])?
Answer: 8

Question: What about the “Giant foxtail plant response rating” value (giant foxtail; [6]) of the same compound?
Answer: 9

Question: And the “Plant response rating, Giant foxtail” value (giant foxtail; [7])?
Answer: 5

Question: And the “Plant response rating, Giant foxtail” value (giant foxtail; [8])?
Answer: 9

Question: And the “Giant foxtail plant response rating” value (giant foxtail; [9])?
Answer: 10

Question: And the “Giant foxtail plant response rating” value (giant foxtail; [10])?
Answer: 10

Question: And the “Giant foxtail plant response rating” value (giant foxtail; [14])?
Answer: 7

Question: And the “Plant response rating, Blackgrass” value (blackgrass; [13])?
Answer: 2

Question: And the “Plant response rating, Blackgrass” value (blackgrass; [5])?
Answer: 6

Question: And the “Blackgrass plant response rating” value (blackgrass; [6])?
Answer: 6

Question: What about the “Plant response rating, Blackgrass” value (blackgrass; [7]) of the same compound?
Answer: 4

Question: And the “Plant response rating, Blackgrass” value (blackgrass; [8])?
Answer: 8

Question: What about the “Blackgrass plant response rating” value (blackgrass; [15]) of the same compound?
Answer: 8

Question: What about the “Blackgrass plant response rating” value (blackgrass; [10]) of the same compound?
Answer: 10

Question: And the “Blackgrass plant response rating” value (blackgrass; [14])?
Answer: 0

Question: What about the “Rice plant response rating” value (rice; [11]) of the same compound?
Answer: 0

Question: And the “Plant response rating, Rice” value (rice; [12])?
Answer: 0
